According to patent US10576097B2, “URLC10-derived peptide and vaccine containing same” (ONCOTHERAPY SCIENCE, INC., priority 2014, dated 2020):

Tests used:
[1] = tested on: peptide-pulsed C1R-A11; assay: In vitro CTL induction, IFN-gamma ELISPOT assay (HLA-A*1101); type: cell-based, human; conditions: CTLs induced from HLA-A*1101-positive donors, against peptide-pulsed C1R-A11, compared with control
Source text: (§1) Monocyte-derived dendritic cells (DCs) were used as the antigen-presenting cell to induce a cytotoxic T lymphocyte (CTL) response against peptides presented on human leukocyte antigens (HLAs). As described in the other sections, DCs were generated in vitro (Nakahara S et al., Cancer Res 2003, 63(14): 4112-8). Specifically, peripheral-blood mononuclear cells isolated from healthy volunteers (HLA-A*1101-positive) with the Ficoll-Paque plus solution (Pharmacia) were separated by attaching to plastic tissue culture dishes (Becton Dickinson) and concentrated as a monocyte fraction. The monocyte-concentrated population was cultured in the presence of 1000 IU/ml granulocyte macrophage colony-stimulating factor (R&D System) and 1000 IU/ml interleukin(IL)-4 (R&D System) in an AIM-V medium (Invitrogen) containing 2% heat-inactivated autologous serum (AS). After seven days of culturing, the cytokine-induced DCs were pulsed with 20 micro-g/ml each of the synthesized peptides in an AIM-V medium at 37 degrees C. for three hours in the presence of 3 micro-g/ml beta 2-microglobulin. The generated cells appeared to express on their cell surface DC-associated molecules such as CD80, CD83, CD86 and HLA class II (data not shown). Next, these peptide-pulsed DCs were inactivated by X-ray irradiation (20 Gy), and mixed in a 1:20 ratio with autologous CD8^+ T cells obtained by positive selection using the CD8 Positive Isolation Kit (Dynal). These culture products were seeded in a 48-well plate (Corning). Each well was made to contain 1.5×10^4 peptide-pulsed DCs, 3×10^5 CD8^+ T cells and 10 ng/ml IL-7 (R&D System) in 0.5 ml of the AIM-V/2% AS medium. Three days later, these culture products were added with a final concentration of 20 IU/ml IL-2 (CHIRON). On day 7 and day 14, T cells were further stimulated with peptide-pulsed autologous DCs. The DCs were prepared every time by the same method as above. On day 21, after the third peptide stimulation, CTLs were examined against the peptide-pulsed C1R-A11 by a human interferon (IFN)-gamma enzyme-linked immunospot (ELISPOT) assay (Tanaka H et al., Br J Cancer 2001, 84(1): 94-9; Umano Y et al., Br J Cancer 2001, 84(8): 1052-7; Uchida N et al., Clin Cancer Res 2004, 10(24): 8577-86; Suda T et al., Cancer Sci 2006, 97(5): 411-9; Watanabe T et al., Cancer Sci 2005, 96(8): 498-506).
(§2) To examine specific CTL activity, an IFN-gamma ELISPOT assay and an IFN-gamma enzyme-linked immunosorbent assay (ELISA) were performed. Specifically, peptide-pulsed C1R-A11 (1×10^4 cells/well) was prepared as the stimulator cell. The induced CTLs, i.e., CTL lines and CTL clones, were used as the responder cell. The IFN-gamma ELISPOT assay and IFN-gamma ELISA were performed according to the manufacturer's manual.

[2] = tested on: COS7 cells transfected with both full-length URLC10 and the HLA-A*1101 gene; assay: Specific CTL activity against target cells expressing URLC10 and HLA-A*1101; type: cell-based, African green monkey
Source text: (§3) A cDNA encoding the open-reading frame of a target gene or HLA-A*1101 was amplified by PCR. The PCR-amplified product was cloned into an expression vector. Either or both of the target gene-expressing vector and the HLA-A*1101-expressing vector were transfected into COS7, which is a cell line negative for the target gene and HLA, using Lipofectamine 2000 (Invitrogen) following the manufacturer's recommended protocol. Two days after transfection, the transfected cells were harvested using versene (Invitrogen), and used as the target cell for CTL activity assay (5×10^4 cells/well).
(§4) The CTL clone established against URLC10-A11-10-132 (SEQ ID NO: 13) was investigated for its ability to recognize target cells expressing URLC10 and the HLA-A*1101 molecule. COS7 cells transfected with both full-length URLC10 and the HLA-A*1101 gene (a specific model of target cells expressing URLC10 and the HLA-A*1101 gene) were prepared as the target cell. COS7 cells transfected with either full-length URLC10 or HLA-A*1101 were prepared as the control.

[3] = tested on: peptide-pulsed C1R-A11 cells; assay: IFN-gamma ELISA of CTL lines and CTL clones (HLA-A*1101); type: cell-based, human
Experimental: (§5) CTLs were propagated in culture using methods similar to those disclosed by Riddell et al. (Walter E A et al., N Engl J Med 1995, 333(16): 1038-44; Riddell S R et al., Nat Med 1996, 2(2): 216-23). The CTLs were co-cultured in a total of 25 ml AIM-V medium containing 5% AS (AIM-V/5% AS) and 40 ng/ml anti-CD3 antibody with two types of Mitomycin C-treated human B lymphoblastoid cell lines at 5×10^6 cells/flask. One day after beginning of the culturing, 120 IU/ml IL-2 was added to the culture. On days 5, 8 and 11, a fresh AIM-V/5% AS medium containing 30 IU/ml IL-2 was added to the culture (Tanaka H et al., Br J Cancer 2001, 84(1): 94-9; Umano Y et al., Br J Cancer 2001, 84(8): 1052-7; Uchida N et al., Clin Cancer Res 2004, 10(24): 8577-86; Suda T et al., Cancer Sci 2006, 97(5): 411-9; Watanabe T et al., Cancer Sci 2005, 96(8): 498-506).
Dilution of CTLs was carried out to make 0.3, 1 and 3 cells/well in 96 round-bottomed microtiter plates (Nalge Nunc International). The CTLs were co-cultured with two types of Mitomycin C-treated human B lymphoblastoid cell lines at 1×10^4 cells/well in a total of 150 micro-l/well AIM-V/5% AS medium with 30 ng/ml anti-CD3 antibody and 125 IU/ml IL-2. Ten days later, IL-2 was added to the medium at 50 micro-1/well to reach a final concentration of 125 IU/ml. […]

[4] = tested on: peptide-pulsed C1R-A03; assay: In vitro CTL induction, IFN-gamma ELISPOT assay (HLA-A*0301); type: cell-based, human; conditions: CTLs induced from HLA-A*0301-positive donors, against peptide-pulsed C1R-A03, compared with control
Source text: as §1, with “(HLA-A*0301-positive)” for “(HLA-A*1101-positive)”, “C1R-A03” for “C1R-A11”
as §2, with “C1R-A03” for “C1R-A11”

[5] = tested on: C1R-A03 cells pulsed with the respective peptide; assay: IFN-gamma ELISA of CTL lines and CTL clones (HLA-A*0301); type: cell-based, human
Experimental: as §5
Dilution of CTLs was carried out to make 1 and 10 cells/well in 96 round-bottomed microtiter plates (Nalge Nunc International). The CTLs were co-cultured with two types of Mitomycin C-treated human B lymphoblastoid cell lines at 1×10^4 cells/well in a total of 150 micro-l/well 5% AS-containing AIM-V (AIM-V/5% AS) medium with 30 ng/ml anti-CD3 antibody and 125 IU/ml IL-2. Ten days later, IL-2 was added to the medium at 50 micro-l/well to reach a final concentration of 125 IU/ml. On day 14, the CTL activity was tested, and the CTL clones were propagated using the same method as described above (Uchida N et al., Clin Cancer Res 2004, 10(24): 8577-86; Suda T et al., Cancer Sci 2006, 97(5): 411-9; Watanabe T et al., Cancer Sci 2005, 96(8): 498-506).
as §2, with “C1R-A03” for “C1R-A11”

[6] = tested on: COS7 cells transfected with both full-length URLC10 and the HLA-A*0301 gene; assay: Specific CTL activity against target cells expressing URLC10 and HLA-A*0301; type: cell-based, African green monkey
Source text: as §3, with “HLA-A*0301” for “HLA-A*1101”, “HLA-A*0301-expressing” for “HLA-A*1101-expressing”, “[…],” for “COS7,”
as §4, with “URLC10-A03-11-131” for “URLC10-A11-10-132”, “31)” for “13)”, “HLA-A*0301” for “HLA-A*1101”

[7] = CTL line against peptide-pulsed versus non-pulsed target cells

| Sequence | peptide-specific CTL activity (IFN-gamma production) [1] | CTL activity of peptide-stimulated CTL clone against control cells ([2]; COS7 cells transfected with either full-length URLC10 or HLA-A*1101) | CTL activity of peptide-stimulated CTL clone ([2]; against COS7 cells expressing both URLC10 and HLA-A*1101) | IFN-gamma production of CTL clone ([3]; CTL clone by limiting dilution, against peptide-pulsed C1R-A11 cells) | IFN-gamma production of CTL line [3, 7] | peptide-specific CTL activity (IFN-gamma production) [4] | IFN-gamma production of CTL clone ([5]; CTL clone by limiting dilution, against peptide-pulsed C1R-A03 cells) | IFN-gamma production of CTL line [5, 7] | CTL activity of peptide-stimulated CTL clone against control cells ([6]; COS7 cells transfected with either full-length URLC10 or HLA-A*0301) | CTL activity of peptide-stimulated CTL clone ([6]; against COS7 cells expressing both URLC10 and HLA-A*0301) |
| --- | --- | --- | --- | --- | --- | --- | --- | --- | --- | --- |
| IFPRFFMVAK (a peptide derived from URLC10) [SEQ ID NO 13, URLC10-derived 10mer peptide, start position 132] | potent IFN-gamma production | significant specific CTL activity was not detected | potent CTL activity | Potent IFN-gamma production | potent IFN-gamma production |  |  |  |  |  |
| KIFPRFFMVAK (a peptide derived from URLC10) [SEQ ID NO 31, URLC10-derived 11mer peptide, start position 131] |  |  |  |  |  | potent IFN-gamma production | Potent IFN-gamma production | potent IFN-gamma production | significant specific CTL activity was not detected | potent CTL activity |
